# Measurements published in patent US12383533B2 (Frost Biologic, Inc., priority 2014, dated 2025).
# What was measured:
# Type in all cases: cell-based
# [1] = tested on: MCF-7 cells; assay: Cell Viability Assay (ATPlite 1step), MCF-7; conditions: Homo sapiens, MCF7, 72 hours; for percent inhibition of cell viability at 4 µM: MCF-7, 4 uM compound, read-out: Cell Viability % inhibition MCF-7 (4 uM Cpd); for percent inhibition of cell viability at 20 µM: MCF-7, 20 uM compound, read-out: Cell Viability % inhibition MCF-7 (20 uM Cpd)
# Description: (§1) Cell Viability Assay Protocol
# (§2) Cells were trypsinized, counted, and re-seeded into a 384-well tissue culture plate at 1000 cells per well in […] media. Cells were incubated at 37° C. in an atmosphere of 5% CO2 for 24 hours. Experimental compounds, initially dissolved in DMSO and diluted further in media were added to the wells and incubated for 72 hours. Cell viability was measured using the ATPlite 1step Luminescence Detection Assay system (Perkin Elmer) as described in the Assay kit instructions.
# (§3) Cell Culture Lines and Media: (1) A2780 cells were cultured in RPMI media with 10% FBS and 1% antibiotics. Cells were typically split every 3-5 days at a 1:10 dilution; (2) PC3 cells were cultured in RPMI media with 10% FBS and 1% antibiotics. Cells were typically split every 3-5 days at a 1:4 dilution; (3) MCF-7 cells were grown in K-12F media with 10% FBS and 1% antibiotics. Cells were typically split every 3-5 days at a 1:10 dilution.
# [2] = tested on: PC3 cells; assay: Cell Viability Assay (ATPlite 1step), PC3; conditions: Homo sapiens, PC-3, 72 hours; for percent inhibition of cell viability at 4 µM: PC3, 4 uM compound, read-out: Cell Viability % inhibition PC3 (4 uM Cpd); for percent inhibition of cell viability at 20 µM: PC3, 20 uM compound, read-out: Cell Viability % inhibition PC3 (20 uM Cpd)
# Description: as §1, §2, §3
# [3] = tested on: A2780 cells; assay: Cell Viability Assay (ATPlite 1step), A2780; conditions: Homo sapiens, 72 hours; for percent inhibition of cell viability at 4 µM: A2780, 4 uM compound, read-out: Cell Viability % inhibition A2780 (4 uM Cpd); for percent inhibition of cell viability at 20 µM: A2780, 20 uM compound, read-out: Cell Viability % inhibition A2780 (20 uM Cpd)
# Description: as §1, §2, §3
Compound,percent inhibition of cell viability at 4 µM [1] [%],percent inhibition of cell viability at 20 µM [1] [%],percent inhibition of cell viability at 4 µM [2] [%],percent inhibition of cell viability at 20 µM [2] [%],percent inhibition of cell viability at 4 µM [3] [%],percent inhibition of cell viability at 20 µM [3] [%]
"Cc1ncc(C(=O)Nc2ccc(-c3ccccc3)cn2)cn1 [Compound 8, 2-methyl-N-(5-phenylpyridin-2-yl)pyrimidine-5-carboxamide]",68.7,74.5,71.6,71.7,89.8,90.8
"Nc1ncc(C(=O)Nc2ccc(-c3ccccc3)cn2)cn1 [Compound 9, 2-amino-N-(5-phenylpyridin-2-yl)pyrimidine-5-carboxamide]",70.9,75.5,70.7,76.7,92.5,90.6
"O=C(Nc1ccc(-c2ccccc2)cn1)c1cccnc1 [Compound 10, N-(5-phenylpyridin-2-yl)pyridine-3-carboxamide]",61.4,86.4,71.8,87.3,92.7,95.2
"O=C(Nc1ccc(-c2cccs2)cn1)c1cccnc1 [Compound 11, N-[5-(thiophen-2-yl)pyridin-2-yl]pyridine-3-carboxamide]",58.6,88.9,70,83.8,85,97.8
"O=C(Nc1ncc(-c2ccccc2)cn1)c1cncnc1 [Compound 12, N-(5-phenylpyrimidin-2-yl)pyrimidine-5-carboxamide]",53.7,69.8,59.7,69.2,82.7,91.3
"O=C(Nc1ccc(-c2ccncc2)cn1)c1cncnc1 [Compound 13, N-(3,4′-bipyridin-6-yl)pyrimidine-5-carboxamide]",4.5,0.2,19.2,17.5,9.3,47.2
"O=C(Nc1ccc(-c2cccnc2)cn1)c1cncnc1 [Compound 14, N-(3,3′-bipyridin-6-yl)pyrimidine-5-carboxamide]",19.1,30.3,23.9,43.3,51.2,71.4
"O=C(Nc1ccc(-c2ccccn2)cn1)c1cncnc1 [Compound 15, N-(3,2′-bipyridin-6-yl)pyrimidine-5-carboxamide]",34.5,25.6,40.8,48.2,68.8,73.4
"CNC(=O)c1cccc(-c2ccc(NC(=O)c3cncnc3)nc2)c1 [Compound 17, N-{5-[3-(methylcarbamoyl)phenyl]pyridin-2-yl}pyrimidine-5-carboxamide]",56.3,75.5,62.8,81.7,84.5,91.7
"COc1cccc(-c2ccc(NC(=O)c3cncnc3)nc2)c1 [Compound 18, N-[5-(3-methoxyphenyl)pyridin-2-yl]pyrimidine-5-carboxamide]",58.8,75.4,66.2,76.5,88.5,91.5
"O=C(Nc1ccc(-c2ccoc2)cn1)c1cncnc1 [Compound 19, N-[5-(furan-3-yl)pyridin-2-yl]pyrimidine-5-carboxamide]",56.4,69.6,62.2,75.2,83.2,91.8
"O=C(Nc1ccc(-c2ccco2)cn1)c1cncnc1 [Compound 20, N-[5-(furan-2-yl)pyridin-2-yl]pyrimidine-5-carboxamide]",56.3,61.2,59.9,69.4,84,91.1
"Cc1ncc(C(=O)Nc2ccc(-c3cc(Cl)cc(N4CCN(C)CC4)c3)cn2)cn1 [Compound 47, N-{5-[3-chloro-5-(4-methylpiperazin-1-yl)phenyl]pyridin-2-yl}-2-methylpyrimidine-5-carboxamide]",40.6,64.6,63.2,78.6,88.7,95.5
"Cc1ncc(C(=O)Nc2ccc(-c3cc(Cl)cc(N4CCN(C)CC4)c3)c(C)n2)cn1 [Compound 48, N-{5-[3-chloro-5-(4-methylpiperazin-1-yl)phenyl]-6-methylpyridin-2-yl}-2-methylpyrimidine-5-carboxamide]",36.5,47.8,72,67,79.2,88.8
"Cc1ncc(C(=O)Nc2ccc(-c3cccc(NC4CCNC4)c3)cn2)cn1 (stereo not shown) [Compound 55, 2-methyl-N-{5-[3-(pyrrolidin-3-ylamino)phenyl]pyridin-2-yl}pyrimidine-5-carboxamide]",–,–,81.1,82.2,80.3,87.4
"NCCNc1ncc(C(=O)Nc2ccc(-c3cccc(C4CC4)c3)cn2)cn1 [Compound 56, 2-[(2-aminoethyl)amino]-N-[5-(3-cyclopropylphenyl)pyridin-2-yl]pyrimidine-5-carboxamide]",–,–,81.4,97.4,88,97.6
"COc1ncc(C(=O)Nc2ccc(-c3cccc(OC4CC4)c3)cn2)cn1 [Compound 57, N-{5-[3-(cyclopropyloxy)phenyl]pyridin-2-yl}-2-methoxypyrimidine-5-carboxamide]",–,–,85.1,89,88.3,89.8
"NCCNc1ncc(C(=O)Nc2ccc(-c3cccc(OC4CC4)c3)cn2)cn1 [Compound 58, 2-[(2-aminoethyl)amino]-N-[5-(3-cyclopropyloxyphenyl)pyridin-2-yl]pyrimidine-5-carboxamide]",–,–,77.7,93.6,86.6,91.1
"COc1ncc(C(=O)Nc2ccc(-c3cccc(C4CC4)c3)cn2)cn1 [Compound 59, N-[5-(3-cyclopropylphenyl)pyridin-2-yl]-2-methoxypyrimidine-5-carboxamide]",–,–,82.6,88.5,87.8,90.4
"O=C(Nc1ccc(-c2cccc(C3CC3)c2)cn1)c1cnc(O)nc1 [Compound 60, N-[5-(3-cyclopropylphenyl)pyridin-2-yl]-2-hydroxypyrimidine-5-carboxamide]",–,–,48.8,80.6,77.1,83.7
"Cc1ncc(C(=O)Nc2ccc(-c3cc(O)cc(C4CC4)c3)cn2)cn1 [Compound 65, N-[5-(3-cyclopropyl-5-hydroxyphenyl)pyridin-2-yl]-2-methylpyrimidine-5-carboxamide]",–,–,80.5,82.2,85.9,89.8
